# According to US7960381B2, “Substituted gamma lactams as therapeutic agents” (Allergan, Inc., priority 2007, dated 2011):
# Tested on: normotensive dogs
# Assay: Ocular surface hyperemia in normotensive dogs
# Type: in vivo
# Details: once daily for 5 days
# Method: U.S. Pat. No. 7,091,231 describes the methods used for these in vivo tests.
# 5-(3-{(S)-1-[4-(1-Hydroxyhexyl)-phenyl]-5-oxo-pyrrolidin-2-yl}-propyl)-thiophene-2-carboxylic acid 2-hydroxyethyl ester (1) was tested in normotensive dogs at 0.003%, dosing once daily for 5 days. The maximum intraocular pressure (IOP) decrease from baseline was 4.4 mmHg (32%) at 30 h; the maximum ocular surface hyperemia (OSH) score was 0.9 at 30 h. This compound was also tested in laser-induced hypertensive monkeys, using one single day dose. At 0.003%, the maximum IOP decrease from baseline was 13.4 mmHg (38%) at 24 h. Compound 1 was also tested in normotensive dogs at 0.001%, dosing once daily for 5 days. The maximum intraocular pressure (IOP) decrease from baseline was 3.75 mmHg (23%) at 76 h; the maximum ocular surface hyperemia (OSH) score was 1.1 at 74 h. Compound 1 was also tested in laser-induced hypertensive monkeys, using one single day dose. At 0.001%, the maximum IOP decrease from baseline was 12.7 mmHg (31%) at 24 h.
# 5-(3-{(S)-1-[4-(1-Hydroxyhexyl)-phenyl]-5-oxo-pyrrolidin-2-yl}-propyl)-thiophene-2-carboxylic acid 2-morpholin-4-yl-ethyl ester (2) was tested in normotensive dogs at 0.003%, dosing once daily for 5 days. The maximum intraocular pressure (IOP) decrease from baseline was 5.9 mmHg (36%) at 52 h; the maximum ocular surface hyperemia (OSH) score was 1.1 at 50 h. This compound was also tested in laser-induced hypertensive monkeys, using one single day dose. At 0.003%, the maximum IOP decrease from baseline was 20 mmHg (53%) at 24 h.
# [1] = 0.003%, maximum at 30 h (1), 50 h (2)
"maximum ocular surface hyperemia (OSH) score (0.001%, maximum at 74 h)",maximum ocular surface hyperemia (OSH) score [1],Compound
1.1,0.9,"CCCCCC(O)c1ccc(N2C(=O)CC[C@@H]2CCCc2ccc(C(=O)OCCO)s2)cc1 (single isomer, unassigned) [Compound 1]"
,1.1,"CCCCCC(O)c1ccc(N2C(=O)CC[C@@H]2CCCc2ccc(C(=O)OCCN3CCOCC3)s2)cc1 (single isomer, unassigned) [Compound 2]"
